Experimental data taken from ChEMBL document CHEMBL1144166 (Bioorg Med Chem, 2008).
“And” between values parts separate entries of the source, which are not always exact repeats. Equal values may be shown once.

Tests used:
Papio [1] = assay: Inhibition of baboon liver mitochondrial monoamine oxidase B at 1000 uM by spectrophotometry
[2] = Inhibition of baboon liver mitochondrial monoamine oxidase B using 30 to 120 uM of MMTP by spectrophotometry; parameters: species or system Papio
[3] = Inhibition of baboon liver mitochondrial monoamine oxidase B using 50 uM of MMTP by spectrophotometry; parameters: species or system Papio
Adenosine receptor A2a = Adenosine receptor A2a (Rattus norvegicus, UniProt P30543)
Description: Displacement of [3H]NECA from Sprague-Dawley rat adenosine A2A receptor by scintillation counting

Papio [4] = assay: Inhibition of baboon liver mitochondrial monoamine oxidase B at 30 uM by spectrophotometry

Adenosine receptor A2a, sequence (P30543 whole entry): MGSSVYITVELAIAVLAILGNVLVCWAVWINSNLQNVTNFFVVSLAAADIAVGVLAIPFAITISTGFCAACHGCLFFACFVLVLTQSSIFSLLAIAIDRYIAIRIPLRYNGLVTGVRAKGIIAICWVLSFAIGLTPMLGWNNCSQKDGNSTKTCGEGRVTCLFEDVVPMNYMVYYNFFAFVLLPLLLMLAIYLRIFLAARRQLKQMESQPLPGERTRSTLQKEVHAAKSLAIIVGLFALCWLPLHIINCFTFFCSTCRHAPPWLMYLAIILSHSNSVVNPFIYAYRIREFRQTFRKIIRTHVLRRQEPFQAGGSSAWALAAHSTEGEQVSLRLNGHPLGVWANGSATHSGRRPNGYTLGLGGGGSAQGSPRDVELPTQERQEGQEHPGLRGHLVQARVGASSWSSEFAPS

Compound	inhibition (Papio [1])	Ki [2]	IC50 [3]	Ki [3]	Ki (Adenosine receptor A2a)	inhibition (Papio [4])
Cn1c(=O)c2c(nc(-c3cccc(C(F)(F)F)c3)n2C)n(C)c1=O	24%					
CCn1c(=O)c2c(nc(/C=C/C=C/c3ccccc3)n2C)n(CC)c1=O					2.74 nM	32.7%
Cn1c(=O)c2c(nc(-c3ccccc3)n2C)n(C)c1=O		86200 nM				
Cn1c(=O)c2c(nc(Cc3cccc(C(F)(F)F)c3)n2C)n(C)c1=O		97600 nM				
CCn1c(=O)c2c(nc(/C=C/C=C/c3ccccc3)n2CC)n(CC)c1=O					7.73 nM	14.6%
Cn1c(=O)c2c(nc(Cc3ccccc3)n2C)n(C)c1=O	18%					

Further lines, with some results ahead:

inhibition (Papio [1])	Ki [2]	IC50 [3]	Ki [3]	Ki (Adenosine receptor A2a)	Compound	inhibition (Papio [4])
	36000 nM				Cn1c(=O)c2c(nc(-c3cccc(Cl)c3)n2C)n(C)c1=O	
	46.4 nM	89 nM	51.4 nM	114 nM	Cn1c(=O)c2c(nc(/C=C/C=C/c3cccc(F)c3)n2C)n(C)c1=O	
	42.1 nM	96.3 nM	55.6 nM	104 nM	Cn1c(=O)c2c(nc(/C=C/C=C/c3cccc(Cl)c3)n2C)n(C)c1=O	
	18.9 nM	28.4 nM and 16.4 nM			Cn1c(=O)c2c(nc(/C=C/c3ccc(Cl)c(Cl)c3)n2C)n(C)c1=O	
	54600 nM				Cn1c(=O)c2c(nc(Cc3cccc(Cl)c3)n2C)n(C)c1=O	
	17.2 nM	37.9 nM	21.9 nM	59.1 nM	Cn1c(=O)c2c(nc(/C=C/C=C/c3cccc(Br)c3)n2C)n(C)c1=O	
	149 nM	383 nM	221 nM	153 nM	Cn1c(=O)c2c(nc(/C=C/C=C/c3ccccc3)n2C)n(C)c1=O	
	62.7 nM	107 nM	61.8 nM		Cn1c(=O)c2c(nc(/C=C/c3cccc(Br)c3)n2C)n(C)c1=O	
	1710 nM	2370 nM	1370 nM	13.5 nM	CCn1c(/C=C/C=C/c2ccccc2)nc2c1c(=O)n(C)c(=O)n2C	
